Reference: US20170037425A1, “METHOD FOR IMPROVING PLANT TRAIT” (SHANGHAI INSTITUTES FOR BIOLOGICAL SCIENCES, CHINESE …, priority 2012, published 2017)

System: Brassica
Assay: Growth, biomass and yield of transgenic Brassica
Type: in vivo, Brassica napus L.
Conditions: for fresh and dry weights vs WT and empty vector control: 4-week-old transgenic Brassica; for plant growth vs WT and empty vector control: 3 weeks
Source text: FIG. 14. (A) WT, empty vector control (pHB) and mCherry transgenic Brassica (L1-L3) were germinated and grown for one week in the phytotron under white light (PPFD:250 μmol m^−2s^−1). Then the plants were moved and grown under white light, green light (PFD: 60 μmol m^−2s^−1) or red+blue light (red light PFD; 60 μmol m^−2s^−1, blue light PFD; 10 μmol m^−2s^−1) for another 3 weeks and photos were taken, (B) Comparison of the fresh weights and dry weights of WT and mCherry transgenic Brassica grown under white light, green light or red+blue light for four weeks. Values in the figures are means±SD, for WT, n=10, for transgenic plant transformed with empty vector control pHB and mCherry, data were the averages of three independent lines and 10 plants for each line. **p≦0.01. (C) Net photosynthetic rate of WT and mCherry transgenic Brassica measured under different light qualities. Nine-week-old WT and mCherry transgenic Brassica grown in the phytotron (PPFD: 250 μmol m^−2s^−1) were transferred and treated with different qualities of light for 4 days and net photosynthetic rate was measured. (D) Net photosynthetic rate of WT and mCherry transgenic Brassica grow in the natural field measured under different PPFD as light source. Net photosynthetic rate was measured in situ between 10:00 am and 12:00 pm. […] FIG. 15. (A) Measurement of the fresh weight and dry weight per plant of 7-week-old WT and mCherry transgenic Brassica plants grown in the natural field conditions. Values in the figures are means±SD, n=10. *p≦0.05, **p≦0.01. (B) Comparison of the plant size, silique size, seed size, grain yield per plant and 1000-seed weight at the harvesting time. Values in the figures are means±SD, n=10. *p≦0.05, **p≦0.01. Wild type (WT), transgenic Brassica with empty vector (pHB) and mCherry transgenic Brassica (L1-L3) were germinated in the phytotron under white light (light intensity: 250 μmol m^−2s^−1) for 1 week. Then the plants were transferred and continued to grow under white light, green light (light intensity: 60 μmol m^−2s^−1), red+blue light (intensity of red light: 60 μmol m^−2s^−1; intensity of blue light: 10 μmol m^−2s^−1). The […] were taken three weeks after transfer.

[1] = transgenic Brassica, young seedling stage

## mCherry: red fluorescent protein, amino acid sequence SEQ ID NO: 2
red+blue light
  fresh and dry weights vs WT and empty vector control: no significant difference
White or green light
  fresh and dry weights vs WT and empty vector control: significantly increased
Transgenic Brassica
  1000-seed weight, increase vs WT: 25%
  grain yield per plant, increase vs WT: 30 to 100%
Transgenic Brassica at harvest
  1000-seed weight vs WT (in words): increased
  grain yield per plant vs WT (in words): increased
  seed size vs WT: significantly increased
Transgenic Brassica, natural field conditions
  growth and biomass accumulation: stimulated the growth and biomass accumulation
Transgenic Brassica, red+blue light
  plant growth vs WT and empty vector control: No significant difference
Transgenic Brassica, white light and green light
  plant growth vs WT and empty vector control: grew better than WT and empty vector control plants
[1]
  dry weight, increase vs WT: 78%
  fresh weight, increase vs WT: 66.7%
